The text below walks through data of patent US8710043B2, “TRPM8 antagonists and their use in treatments” (Amgen Inc., priority 2011, dated 2014).

A word on the IC50: it is the concentration needed to halve the response being measured.

Structures are written as SMILES.

The target in the test is T1, human TRPM8 (Homo sapiens, UniProt Q7Z2W7).
T1 construct: expressed in transfected cells; host or cells: Chinese hamster ovary (CHO) cells, T-REx tetracycline-inducible system, co-transfected with aequorin
In words: Luminescence readout assay for measuring intracellular calcium, icilin activation. The format is cell-based. As to conditions: CHO cells expressing human TRPM8, aequorin luminescence, 1 μM icilin activation; read-out: hTRPM8 IC50. An outline of the steps: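 The read-out was luminescence reporting intracellular calcium, recorded by a CCD-based luminometer. Compounds were preincubated for 2.5 min before agonist challenge with 1 μM icilin. Human TRPM8 was expressed in a stable T-REx CHO line, induced with 0.5 μg/mL tetracycline the day before.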
Background: Calcium assays in cells follow changes in intracellular calcium, usually with a dye or a luminescent sensor.

T1 sequence (Q7Z2W7 whole entry): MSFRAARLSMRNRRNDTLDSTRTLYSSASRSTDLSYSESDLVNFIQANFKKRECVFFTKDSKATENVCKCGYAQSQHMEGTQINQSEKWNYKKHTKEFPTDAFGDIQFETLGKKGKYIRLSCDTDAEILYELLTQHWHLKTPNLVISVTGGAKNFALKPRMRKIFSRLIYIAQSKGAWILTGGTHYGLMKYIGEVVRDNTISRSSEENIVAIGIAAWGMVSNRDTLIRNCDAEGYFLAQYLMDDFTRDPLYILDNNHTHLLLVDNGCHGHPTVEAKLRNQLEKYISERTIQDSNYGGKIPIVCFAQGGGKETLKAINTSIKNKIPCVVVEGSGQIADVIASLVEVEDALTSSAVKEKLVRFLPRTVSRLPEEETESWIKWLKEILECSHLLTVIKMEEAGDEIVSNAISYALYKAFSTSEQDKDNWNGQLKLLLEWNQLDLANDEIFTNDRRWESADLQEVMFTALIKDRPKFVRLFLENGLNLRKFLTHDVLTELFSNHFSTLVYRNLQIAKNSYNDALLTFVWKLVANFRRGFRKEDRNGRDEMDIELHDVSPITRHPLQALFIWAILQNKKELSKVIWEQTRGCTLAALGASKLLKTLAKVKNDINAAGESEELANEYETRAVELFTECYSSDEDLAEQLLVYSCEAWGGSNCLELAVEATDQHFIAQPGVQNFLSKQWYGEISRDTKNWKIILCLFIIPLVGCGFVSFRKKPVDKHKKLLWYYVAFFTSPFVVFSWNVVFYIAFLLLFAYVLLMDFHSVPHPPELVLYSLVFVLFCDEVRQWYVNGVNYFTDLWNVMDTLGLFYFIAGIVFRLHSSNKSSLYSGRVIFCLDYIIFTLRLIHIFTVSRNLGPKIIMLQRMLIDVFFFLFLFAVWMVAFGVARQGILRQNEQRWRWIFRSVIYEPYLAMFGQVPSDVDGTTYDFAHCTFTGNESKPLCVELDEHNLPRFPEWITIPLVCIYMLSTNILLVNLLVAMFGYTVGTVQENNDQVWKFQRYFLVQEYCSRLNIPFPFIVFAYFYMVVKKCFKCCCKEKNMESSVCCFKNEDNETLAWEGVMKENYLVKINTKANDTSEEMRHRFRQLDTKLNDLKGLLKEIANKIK

With `N#Cc1ccc(C(=O)N[C@@H](c2ccc(C(F)(F)F)cc2)c2ncccc2C(F)(F)F)nc1` [Example 275, (S)-5-Cyano-N-((4-(trifluoromethyl)phenyl)(3-(trifluoro-methyl)pyridin-2-yl)methyl)picolinamide], the IC50 was 68.6 nM.

For the molecule `O=C(O)Cn1cc(C(=O)N[C@@H](c2ccc(OC(F)(F)F)c(F)c2)c2ncccc2F)ccc1=O` [Example 428, (S)-2-(5-(((3-Fluoro-4-(trifluoromethoxy)phenyl)(3-fluoropyridin-2-yl)methyl)carbamoyl)-2-oxopyridin-1(2H)-yl)acetic Acid], the IC50 was determined as 1290 nM.

On to `O=C(N[C@@H](c1ccc(C(F)(F)F)cc1)c1ncccc1C(F)(F)F)c1ccc(-c2nnn[nH]2)cc1` [Example 141, (S)-4-(1H-tetrazol-5-yl)-N-((4-(trifluoromethyl)phenyl)(3-(trifluoromethyl)pyridin-2-yl)methyl)benzamide], for which the IC50 amounted to 160 nM.

With `O=C(N[C@@H](c1ccc(C(F)(F)F)cc1)c1ncccc1F)c1ccc2c(O)ccnc2c1` [Example 105, (S)-N-((3-fluoropyridin-2-yl)(4-(trifluoromethyl)phenyl)methyl)-4-hydroxyquinoline-7-carboxamide 2,2,2-trifluoroacetate], the IC50 was found to be 10.8 nM.

On to `COc1cccc(C(=O)NC(c2ccc(C(F)(F)F)cc2)c2ncccc2F)c1` (stereo not shown) [Example 214, N-((3-fluoropyridin-2-yl)(4-(trifluoromethyl)phenyl)methyl)-3-methoxybenzamide], for which the IC50 worked out at 121 nM.

`O=C(N[C@@H](c1ccc(C(F)(F)F)cc1)c1ncccc1C(F)(F)F)c1cccs1` [Example 138, (S)-N-((4-(trifluoromethyl)phenyl)(3-(trifluoromethyl)pyridin-2-yl)methyl)thiophene-2-carboxamide]: the IC50 was 46.4 nM.

Turning to `O=C(N[C@@H](c1ccc(C(F)(F)F)cc1)c1ncccc1C(F)(F)F)c1ccc2c(c1)C(=O)CC2` [Example 245, (S)-3-oxo-N-((4-(trifluoromethyl)phenyl)(3-(trifluoromethyl)pyridin-2-yl)methyl)-2,3-dihydro-1H-indene-5-carboxamide], the IC50 was determined as 77.4 nM.

With `O=C(N[C@@H](c1ccc(Cl)cc1)c1ncccc1C(F)(F)F)c1ccc2cccnc2c1` [Example 6, (S)-N-((4-chlorophenyl)(3-(trifluoromethyl)pyridin-2-yl)methyl)quinoline-7-carboxamide], the IC50 came out at 73.9 nM.

In the case of `O=C(N[C@@H](c1ccc(C(F)(F)F)cc1)c1ncccc1C(F)(F)F)c1cccc(C(=O)c2ccccc2)c1` [Example 246, (S)-3-benzoyl-N-((4-(trifluoromethyl)phenyl)(3-(trifluoromethyl)pyridin-2-yl)methyl)benzamide 2,2,2-trifluoroacetate], the IC50 is 210 nM.

For `O=C1Cc2cc(C(=O)N[C@@H](c3ccc(C(F)(F)F)cc3)c3ncccc3F)ccc2N1` [Example 70, (S)-N-((3-fluoropyridin-2-yl)(4-(trifluoromethyl)phenyl)methyl)-2-oxoindoline-5-carboxamide], the IC50 turned out to be 15.2 nM.

Regarding `O=C(O)c1cccc(C(=O)N[C@@H](c2ccc(C(F)(F)F)cc2)c2ncccc2C(F)(F)F)c1` [Example 179, (S)-3-(((4-(trifluoromethyl)phenyl)(3-(trifluoromethyl)pyridin-2-yl)methyl)carbamoyl)benzoic acid], the IC50 was 39.8 nM.

Consider `COC(=O)c1cccc(C(=O)N[C@@H](c2ccc(C(F)(F)F)cc2)c2ncccc2C(F)(F)F)c1` [Example 189, (S)-methyl 3-(((4-(trifluoromethyl)phenyl)(3-(trifluoromethyl)pyridin-2-yl)methyl)carbamoyl)benzoate], for which the IC50 amounted to 80.6 nM.

For `CN(C)c1ccc(C(=O)N[C@@H](c2ccc(C(F)(F)F)cc2)c2ncccc2C(F)(F)F)cn1` [Example 262, (S)-6-(Dimethylamino)-N-((4-(trifluoromethyl)phenyl)(3-(trifluoromethyl)pyridin-2-yl)methyl)nicotinamide], the IC50 was determined as 114 nM.

Regarding `O=C(N[C@@H](c1ccc(C(F)(F)F)cc1)c1ncccc1F)c1cnc(Cl)c(Br)c1` [Example 198, (S)-5-bromo-6-chloro-N-((3-fluoropyridin-2-yl)(4-(trifluoromethyl)phenyl)methyl)nicotinamide], the IC50 was determined as 56 nM.

Regarding `O=C(N[C@@H](c1ccc(C(F)(F)F)cc1)c1ncccc1F)c1c[nH]c(=O)c(Br)c1` [Example 368, (S)-5-bromo-N-((3-fluoropyridin-2-yl)(4-(trifluoromethyl)phenyl)methyl)-6-oxo-1,6-dihydropyridine-3-carboxamide], the IC50 is 21 nM.

As for `COc1ccc(C(=O)N[C@@H](c2ccc(C(F)(F)F)cc2)c2ncccc2F)cc1` [Example 172, (S)-N-((3-fluoropyridin-2-yl)(4-(trifluoromethyl)phenyl)methyl)-4-methoxybenzamide], the IC50 is 18.1 nM.

For `Cn1ccnc1C(=O)N[C@@H](c1ccc(OC(F)(F)F)c(F)c1)c1ncccc1F` [Example 387, (S)-N-((3-fluoro-4-(trifluoromethoxy)phenyl)(3-fluoropyridin-2-yl)methyl)-1-methyl-1H-imidazole-2-carboxamide 2,2,2-trifluoroacetate], the 50% inhibitory concentration (IC50) amounted to 279 nM.

As to `CCCc1cccnc1[C@@H](NC(=O)c1ccc(=O)[nH]c1)c1ccc(C(F)(F)F)cc1` [Example 267, (S)-6-Oxo-N-((3-propylpyridin-2-yl)(4-(trifluoromethyl)-phenyl)methyl)-1,6-dihydropyridine-3-carboxamide], the IC50 was determined as 9.9 nM.

For `O=C(N[C@@H](c1ccc(OC(F)(F)F)c(F)c1)c1ncccc1F)c1cc2[nH]c(=O)oc2cn1` [Example 437, (S)—N-((3-Fluoro-4-(trifluoromethoxy)phenyl)(3-fluoropyridin-2-yl)methyl)-2-oxo-1,2-dihydrooxazolo[5,4-c]pyridine-6-carboxamide], the IC50 was found to be 225 nM.

`CC(C)(C)OC(=O)N1CC(CC(=O)N[C@@H](c2ccc(C(F)(F)F)cc2)c2ncccc2C(F)(F)F)C1` [Example 229, (S)-tert-butyl 3-(2-oxo-2-(((4-(trifluoromethyl)phenyl)(3-(trifluoromethyl)pyridin-2-yl)methyl)amino)ethyl)azetidine-1-carboxylate]: the IC50 is 354 nM.

Regarding `O=C(Cc1ccccc1)N[C@@H](c1ccc(C(F)(F)F)cc1)c1ncccc1C(F)(F)F` [Example 218, (S)-2-phenyl-N-((4-(trifluoromethyl)phenyl)(3-(trifluoromethyl)pyridin-2-yl)methyl)acetamide], the IC50 was 230 nM.

`Nc1cnccc1C(=O)N[C@@H](c1ccc(C(F)(F)F)cc1)c1ncccc1C(F)(F)F` [Example 139, (S)-3-amino-N-((4-(trifluoromethyl)phenyl)(3-(trifluoromethyl)pyridin-2-yl)methyl)isonicotinamide]: the IC50 came out at 65.9 nM.

With `Cn1c(=O)c(=O)n(O)c2ccc(C(=O)N[C@@H](c3ccc(OC(F)(F)F)c(F)c3)c3ncccc3F)cc21` [Example 436, (S)—N-((3-Fluoro-4-(trifluoromethoxy)phenyl)(3-fluoropyridin-2-yl)methyl)-1-hydroxy-4-methyl-2,3-dioxo-1,2,3,4-tetrahydroquinoxaline-6-carboxamide], the IC50 is 22.4 nM.

For `O=C(N[C@@H](c1ccc(OC(F)(F)F)c(F)c1)c1ncccc1F)c1cc2oc(=O)[nH]c2cn1` [Example 438, (S)—N-((3-Fluoro-4-(trifluoromethoxy)phenyl)(3-fluoropyridin-2-yl)methyl)-2-oxo-2,3-dihydrooxazolo[4,5-c]pyridine-6-carboxamide], the IC50 turned out to be 11.4 nM.

In the case of `O=C(N[C@@H](c1ccc(C(F)(F)F)cc1)c1ncccc1F)c1ccc2ccc(=O)[nH]c2c1` [Example 125, (S)-N-((3-fluoropyridin-2-yl)(4-(trifluoromethyl)phenyl)methyl)-2-oxo-1,2-dihydroquinoline-7-carboxamide], the IC50 was 176 nM.

Take `COc1ccnc(C(NC(=O)c2ccc(=O)[nH]c2)c2ccc(OC(F)(F)F)c(F)c2)c1` (stereo not shown) [Example 422, N-((3-fluoro-4-(trifluoromethoxy)phenyl)(4-methoxypyridin-2-yl)methyl)-6-oxo-1,6-dihydropyridine-3-carboxamide]: the concentration for half-maximal inhibition (IC50) was 841 nM.

On to `CC#Cc1cccnc1[C@@H](NC(=O)c1ccc2cccnc2c1)c1ccc(C(F)(F)F)cc1` [Example 97, (S)-N-((3-(prop-1-yn-1-yl)pyridin-2-yl)(4-(trifluoromethyl)phenyl)methyl)quinoline-7-carboxamide 2,2,2-trifluoroacetate], for which the IC50 stood at 119 nM.

`O=C(N[C@@H](c1ccc(C(F)(F)F)cc1)c1ncccc1C(F)(F)F)c1ccoc1` [Example 199, (S)-N-((4-(trifluoromethyl)phenyl)(3-(trifluoromethyl)pyridin-2-yl)methyl)furan-3-carboxamide]: the IC50 was determined as 77.6 nM.

For the molecule `Cn1ccc(C(=O)N[C@@H](c2ccc(C(F)(F)F)cc2)c2ncccc2C(F)(F)F)n1` [Example 192, (S)-1-methyl-N-((4-(trifluoromethyl)phenyl)(3-(trifluoromethyl)pyridin-2-yl)methyl)-1H-pyrazole-3-carboxamide], the IC50 was 79 nM.

For the molecule `Cc1ccnn1CC(=O)N[C@@H](c1ccc(C(F)(F)F)cc1)c1ncccc1C(F)(F)F` [Example 153, (S)-2-(5-methyl-1H-pyrazol-1-yl)-N-((4-(trifluoromethyl)phenyl)(3-(trifluoromethyl)pyridin-2-yl)methyl)acetamide], the IC50 is 373 nM.

`O=C(N[C@@H](c1ccc(C(F)(F)F)cc1)c1nc(F)ccc1F)c1ccc(=O)[nH]c1` [Example 291, (S)-N-((3,6-difluoropyridin-2-yl)(4-(trifluoromethyl)phenyl)methyl)-6-oxo-1,6-dihydropyridine-3-carboxamide]: the IC50 turned out to be 332 nM.
